Experimental data from US6638529B2, “Amide-based cationic lipids” (Genta Incorporated, priority 1995, dated 2003).

Legend:
COS-7 cells [1] = experiment: Transient transfection of CAT plasmid pG1035 with cationic lipids, CAT activity in lysate; type: cell-based, African green monkey; details: for Mean (transient transfection efficiency; CAT activity normalized to total protein): CAT plasmid pG1035 2 μg/mL, lipid 18 μg/mL (9 to 1 lipid to DNA), triplicate; for REL (transient transfection efficiency relative to best lipid in the cell line): CAT plasmid pG1035, 9 to 1 lipid to DNA
Procedure: (§1) Cell lines were plated at 1.5×10^5 cells/well in a 12 well plate format on the day before tranfection. […] This small quantity of ethanol was confirmed to have no adverse effect on any of the cell lines. […] Cell lysates were prepared by rinsing twice in PBS and then were treated with 0.5 mL of 1× Reporter Lysis Buffer (Promega, Madison, Wis.). The lysed cells were pipetted into 1.5 mL tubes and frozen in CO2/EtOH once and thawed. The crude lysate was then clarified by microcentrifugation at 14,000 rpm for 10 minutes to pellet cell debris. The clear supernatant was recovered and assayed directly or stored at -20° C. for assay later. The cell lysates were then assayed for CAT activity and the total protein concentration was determined as described below in Example 7. The CAT activity was normalized to total protein and plotted as shown. This assay was performed generally as follows. First, the following reaction mixture was prepared for each sample: […] Louis, Mo.), 4 mL ^14C-chloramphenicol, 50 nCi/mL (Dupont, Boston, Mass.), and 5 mL mg/mL n-butyryl coenzyme A (Pharmacia, Piscataway, N.J.). […] The original stock CAT was at 7000 Units/mL. […] Approximately […] of reaction mixture was then added to each sample tube, which was then typically incubated for approximately 1 hour in a 37° C. oven. The reaction was terminated by adding […] pristane:mixed xylenes (2:1) (Sigma, St. Louis, Mo.) to each tube. The tubes were then vortexed for 2 minutes and spun for 5 minutes. Approximately […] of the upper phase was transferred to a scintillation vial with 5 mL Scintiverse (Fisher, Pittsburgh, Pa.). The sample was then counted in a scintillation counter (Packard). The plasmid pG1035 was used for transient transfections of COS-7 (ATCC # CRL-1651), SNB-19, C8161 and RD (ATCC # CCL-136) cells. pG1035 consists of a modified CAT (choramphenicol acetyl transferase) gene (named […]) inserted into the eukaryotic vector pRc/CMV (Invitrogen, San Diego, Calif.). […] created by inserting an artificial intron into the wild type CAT gene sequence in a plasmid named pG1036 (also based on pRc/CMV) using the polymerase chain reaction. […] Concentration curve standards were prepared using 6 μL of […] BSA stock solutions and 300 mL of the Coomassie reagent. The assay samples were allowed to sit for approximately 30 minutes before reading the optical absorbance at 570 nm in a microplate reader (Molecular Probes). The cells were assayed for CAT protein as described above.

C8161 cells [2] = experiment: as above; type: cell-based, human; details: for Mean (transient transfection efficiency; CAT activity normalized to total protein): CAT plasmid pG1035 2 μg/mL, lipid 18 μg/mL (9 to 1 lipid to DNA), triplicate; for REL (transient transfection efficiency relative to best lipid in the cell line): CAT plasmid pG1035, 9 to 1 lipid to DNA
Procedure: as §1

RD cells [3] = experiment: as above; type: cell-based, human; details: for Mean (transient transfection efficiency; CAT activity normalized to total protein): CAT plasmid pG1035 2 μg/mL, lipid 18 μg/mL (9 to 1 lipid to DNA), triplicate; for REL (transient transfection efficiency relative to best lipid in the cell line): CAT plasmid pG1035, 9 to 1 lipid to DNA
Procedure: as §1

SNB-19 cells [4] = experiment: as above; type: cell-based, human; details: for Mean (transient transfection efficiency; CAT activity normalized to total protein): CAT plasmid pG1035 2 μg/mL, lipid 18 μg/mL (9 to 1 lipid to DNA), triplicate; for REL (transient transfection efficiency relative to best lipid in the cell line): CAT plasmid pG1035, 9 to 1 lipid to DNA
Procedure: as §1

COS-7 cells [5] = experiment: FITC-oligonucleotide uptake assay (nuclear fluorescence score); type: cell-based, African green monkey; design: key: 0: No nuclear fluorescence; 1: up to 20% fluorescent nuclei; 2: up to 40% fluorescent nuclei; 3: up to 60% fluorescent nuclei; 4: up to 80% fluorescent nuclei; 5: up to 100% fluorescent nuclei; details: COS7, lipid:oligomer 9:1 or 6:1 by weight, 4-6 h
SNB-19 cells [6] = experiment: as above; type: cell-based, human; design: key: 0: No nuclear fluorescence; 1: up to 20% fluorescent nuclei; 2: up to 40% fluorescent nuclei; 3: up to 60% fluorescent nuclei; 4: up to 80% fluorescent nuclei; 5: up to 100% fluorescent nuclei; details: SNB19, lipid:oligomer 9:1 or 6:1 by weight, 4-6 h
C8161 cells [7] = experiment: as above; type: cell-based, human; design: key: 0: No nuclear fluorescence; 1: up to 20% fluorescent nuclei; 2: up to 40% fluorescent nuclei; 3: up to 60% fluorescent nuclei; 4: up to 80% fluorescent nuclei; 5: up to 100% fluorescent nuclei; details: lipid:oligomer 9:1 or 6:1 by weight, 4-6 h
RD cells [8] = experiment: as above; type: cell-based, human; design: key: 0: No nuclear fluorescence; 1: up to 20% fluorescent nuclei; 2: up to 40% fluorescent nuclei; 3: up to 60% fluorescent nuclei; 4: up to 80% fluorescent nuclei; 5: up to 100% fluorescent nuclei; details: lipid:oligomer 9:1 or 6:1 by weight, 4-6 h
[9] = FITC oligomer 3498-PS (phosphorothioate) 0.25 micromolar
[10] = FITC oligomer 3498 Chimera 0.25 micromolar
[11] = FITC oligomer 3793-2 alternating (methylphosphonate/diester, 2'-O-methyl) 0.25 micromolar

## CCCCCCCCCCCCCCCCCC(CCCCCCCCCCCCCCCCC)NC(=O)CNC(=O)CNC(=O)[C@H](CCCNCCCN)NCCCN.O=C(O)C(F)(F)F.O=C(O)C(F)(F)F.O=C(O)C(F)(F)F.O=C(O)C(F)(F)F [Compound 1-10, N^2,N^5-Bis(3-aminopropyl)-L-ornithylglycyl-N-(1-heptadecyloctadecyl)glycinamide, Tetrahydrotrifluoroacetate]
COS-7 cells [1]
  Mean (transient transfection efficiency; CAT activity normalized to total protein): 148040
  REL (transient transfection efficiency relative to best lipid in the cell line): 0.87
C8161 cells [2]
  Mean (transient transfection efficiency; CAT activity normalized to total protein): 159578
  REL (transient transfection efficiency relative to best lipid in the cell line): 0.8
RD cells [3]
  Mean (transient transfection efficiency; CAT activity normalized to total protein): 124232
  REL (transient transfection efficiency relative to best lipid in the cell line): 0.7
SNB-19 cells [4]
  Mean (transient transfection efficiency; CAT activity normalized to total protein): 166179
  REL (transient transfection efficiency relative to best lipid in the cell line): 0.88
COS-7 cells [5]; [9]
  Nuclear delivery of oligonucleotide (uptake score): 4 (up to 80% fluorescent nuclei)
COS-7 cells [5]; [10]
  Nuclear delivery of oligonucleotide (uptake score): 3 (up to 60% fluorescent nuclei)
COS-7 cells [5]; [11]
  Nuclear delivery of oligonucleotide (uptake score): 0
SNB-19 cells [6]; [9]
  Nuclear delivery of oligonucleotide (uptake score): 4 (up to 80% fluorescent nuclei)
SNB-19 cells [6]; [10]
  Nuclear delivery of oligonucleotide (uptake score): 4 (up to 80% fluorescent nuclei)
SNB-19 cells [6]; [11]
  Nuclear delivery of oligonucleotide (uptake score): 0
C8161 cells [7]; [9]
  Nuclear delivery of oligonucleotide (uptake score): 5 (up to 100% fluorescent nuclei)
C8161 cells [7]; [10]
  Nuclear delivery of oligonucleotide (uptake score): 3 (up to 60% fluorescent nuclei)
C8161 cells [7]; [11]
  Nuclear delivery of oligonucleotide (uptake score): 0
RD cells [8]; [9]
  Nuclear delivery of oligonucleotide (uptake score): 5 (up to 100% fluorescent nuclei)
RD cells [8]; [10]
  Nuclear delivery of oligonucleotide (uptake score): 4 (up to 80% fluorescent nuclei)
RD cells [8]; [11]
  Nuclear delivery of oligonucleotide (uptake score): 0

## CCCCCCCCCCCCCCCCCCN(CCCCCCCCCCCCCCCCCC)C(=O)CC[C@H](NC(=O)[C@H](CCCNCCCN)NCCCN)C(=O)O.Cl.Cl.Cl.Cl [Compound 2-5, N^2-[N^2,N^5-Bis(3-aminopropyl)-L-ornithyl]-N,N-dioctadecyl-L-glutamine, tetrahydrochloride]
COS-7 cells [1]
  Mean (transient transfection efficiency; CAT activity normalized to total protein): 55598
  REL (transient transfection efficiency relative to best lipid in the cell line): 0.33
C8161 cells [2]
  Mean (transient transfection efficiency; CAT activity normalized to total protein): 137710
  REL (transient transfection efficiency relative to best lipid in the cell line): 0.69
RD cells [3]
  Mean (transient transfection efficiency; CAT activity normalized to total protein): 73921
  REL (transient transfection efficiency relative to best lipid in the cell line): 0.41
SNB-19 cells [4]
  Mean (transient transfection efficiency; CAT activity normalized to total protein): 103280
  REL (transient transfection efficiency relative to best lipid in the cell line): 0.55
COS-7 cells [5]; [9]
  Nuclear delivery of oligonucleotide (uptake score): 2 (up to 40% fluorescent nuclei)
COS-7 cells [5]; [10]
  Nuclear delivery of oligonucleotide (uptake score): 2 (up to 40% fluorescent nuclei)
COS-7 cells [5]; [11]
  Nuclear delivery of oligonucleotide (uptake score): 1 (up to 20% fluorescent nuclei)
SNB-19 cells [6]; [9]
  Nuclear delivery of oligonucleotide (uptake score): 3 (up to 60% fluorescent nuclei)
SNB-19 cells [6]; [10]
  Nuclear delivery of oligonucleotide (uptake score): 3 (up to 60% fluorescent nuclei)
SNB-19 cells [6]; [11]
  Nuclear delivery of oligonucleotide (uptake score): 3 (up to 60% fluorescent nuclei)
C8161 cells [7]; [9]
  Nuclear delivery of oligonucleotide (uptake score): 3 (up to 60% fluorescent nuclei)
C8161 cells [7]; [10]
  Nuclear delivery of oligonucleotide (uptake score): 4 (up to 80% fluorescent nuclei)
C8161 cells [7]; [11]
  Nuclear delivery of oligonucleotide (uptake score): 3 (up to 60% fluorescent nuclei)
RD cells [8]; [9]
  Nuclear delivery of oligonucleotide (uptake score): 3 (up to 60% fluorescent nuclei)
RD cells [8]; [10]
  Nuclear delivery of oligonucleotide (uptake score): 4 (up to 80% fluorescent nuclei)
RD cells [8]; [11]
  Nuclear delivery of oligonucleotide (uptake score): 4 (up to 80% fluorescent nuclei)
